{
  "source": "patent US8669072B2",
  "about": "“Oxadiazoline ligands for modulating the expression of exogenous genes via an ecdysone receptor complex” (Intrexon Corporation, priority 2003, dated 2014)",
  "key": {"[1]": {"molecular_target": "T1, GAL4 DBD (1-147)-CfEcR(DEF)/VP16AD-βRXREF-LmUSPEF (Choristoneura fumiferana, UniProt O77240)", "T1 construct": "The wild-type D, E, and F domains from spruce budworm Choristoneura fumiferana EcR (“CfEcR-DEF”)", "test": "cell-based", "method": "Stably transfected cells were selected by Zeocin resistance. Individually isolated CHO cell clones were transiently transfected with a GAL4 RE-luciferase reporter (pFR Luc). 27-63 clone was selected using Hygromycin.\n(§1) Cells were trypsinized and diluted to a concentration of 2.5×10^4 cells mL. 100 μL of cell suspension was placed in each well of a 96 well plate and incubated at 37° C. under 5% CO2 for 24 h. Ligand stock solutions were prepared in DMSO and diluted 300 fold for all treatments.\n(§2) Luciferase reporter gene expression was measured 48 h after cell treatment using Bright-Glo™ Luciferase Assay System from Promega (E2650). Luminescence was detected at room temperature using a Dynex MLX microtiter plate luminometer.\n(§3) Each assay was conducted in two separate wells, and the two values were averaged. Fold inductions were calculated by dividing relative light units (“RLU”) in ligand treated cells with RLU in DMSO treated cells. EC50s were calculated from dose response data using a three-parameter logistic model."}, "[2]": {"molecular_target": "T2, GAL4 DBD-CfEcR(DEF)/VP16AD-MmRXRE (Choristoneura fumiferana, UniProt O77240)", "T2 construct": "The wild-type D, E, and F domains from spruce budworm Choristoneura fumiferana EcR (“CfEcR-DEF”)", "test": "13B3 assay: luciferase reporter gene induction in stable CHO clone 13B3", "type": "cell-based", "settings": "33/33.3 μM ligand, 48 h, RLU relative to DMSO", "method": "CHO cells were transiently transfected with transcription cassettes for GAL4 DBD-CfEcR(DEF) and for VP16AD-MmRXRF controlled by SV40e promoters. Stably transfected cells were selected using Hygromycin. Individually isolated CHO cell clones were transiently transfected with a GAL4 RE-luciferase reporter (pFR-Luc, Stratagene, La Jolla, Calif.). The 13B3 clone was selected using Zeocin.\nas §1, §2, §3"}, "Bombyx mori EcR (VBE)": {"molecular_target": "T3, Bombyx mori EcR (VBE) (Bombyx mori, UniProt P49881)", "T3 construct": "expressed in transfected cells; host or cells: Human HEK-293 cells, retrovirally infected, clone Z3", "T3 sequence (P49881 86-606 limits assumed)": "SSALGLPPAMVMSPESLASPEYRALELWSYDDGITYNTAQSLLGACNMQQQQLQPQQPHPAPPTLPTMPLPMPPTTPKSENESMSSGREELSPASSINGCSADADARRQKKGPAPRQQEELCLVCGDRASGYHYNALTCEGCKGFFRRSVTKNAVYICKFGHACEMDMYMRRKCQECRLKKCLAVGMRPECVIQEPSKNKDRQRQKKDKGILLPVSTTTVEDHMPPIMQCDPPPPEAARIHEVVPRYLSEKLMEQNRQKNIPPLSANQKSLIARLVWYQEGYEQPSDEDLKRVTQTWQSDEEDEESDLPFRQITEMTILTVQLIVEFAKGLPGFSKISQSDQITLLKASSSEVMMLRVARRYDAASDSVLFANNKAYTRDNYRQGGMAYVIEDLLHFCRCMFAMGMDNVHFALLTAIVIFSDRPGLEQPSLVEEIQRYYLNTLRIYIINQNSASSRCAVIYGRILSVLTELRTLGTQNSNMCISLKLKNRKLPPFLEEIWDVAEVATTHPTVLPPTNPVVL", "T3 sequence (P19793 1-462 partner)": "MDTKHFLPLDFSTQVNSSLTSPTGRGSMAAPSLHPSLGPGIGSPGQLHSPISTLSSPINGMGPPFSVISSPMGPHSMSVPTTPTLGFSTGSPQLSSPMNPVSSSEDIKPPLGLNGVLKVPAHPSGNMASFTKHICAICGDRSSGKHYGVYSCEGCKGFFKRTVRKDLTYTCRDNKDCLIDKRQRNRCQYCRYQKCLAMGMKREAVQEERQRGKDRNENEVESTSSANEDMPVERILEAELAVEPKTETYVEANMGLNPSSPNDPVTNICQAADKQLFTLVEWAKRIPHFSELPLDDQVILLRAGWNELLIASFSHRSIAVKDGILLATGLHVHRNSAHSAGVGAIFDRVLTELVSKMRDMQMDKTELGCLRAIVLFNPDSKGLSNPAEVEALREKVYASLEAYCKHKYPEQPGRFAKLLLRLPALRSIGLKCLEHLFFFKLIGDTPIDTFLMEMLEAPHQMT", "test": "Z3 assay: β-galactosidase reporter gene induction in HEK-293 clone Z3 (CVBE / 6XEcRE LacZ)", "type": "cell-based", "settings": "33 μM ligand, 48 h, RLU relative to DMSO", "method": "A synthetic ATG start codon was placed under the control of cytomegalovirus (CVBE) immediate early promoter and flanked by long terminal repeats (LTR). The reporter construct contained six copies of the ecdysone response element (EcRE) binding site placed upstream of LacZ and flanked on both sides with LTR sequences (6×EcRE).\nDilution cloning was used to isolate individual clones. Clones were selected using 450 ug/mL G418 and 100 ng/mL puromycin. Individual clones were evaluated based on their response in the presence and absence of test ligands.\nZ3 cells were seeded into 96-well tissue culture plates at a concentration of 2.5×10^3 cells per well and incubated at 37° C. in 5% CO2 for twenty-four hours. Stock solutions of ligands were prepared in DMSO. […] The final concentration of DMSO was maintained at 0.03% in both controls and treatments.\nReporter gene expression was evaluated 48 hours after treatment of cells, β-galactosidase activity was measured using Gal Screen™ bioluminescent reporter gene assay system from Tropix (GSY1000). Fold induction activities were calculated by dividing relative light units (“RLU”) in ligand treated cells with RLU in DMSO treated cells. Luminescence was detected at room temperature using a Dynex MLX microtiter plate luminometer.\nas §3"}},
  "data": [
    {"smiles": "CCc1ccc(C(=O)NN2C(c3ccc4c(c3)OCO4)=NOC2(C)C)cc1", "note": "[RG-120061]", "values": [
      {"measurement": "EC50", "setting": "[1]", "result": "> 33", "unit": "µM"},
      {"measurement": "fold induction at 33.3 µM", "setting": "[1]; 48 h, read-out: Fold Induction Average, 27-63 assay", "result": 0.9},
      {"measurement": "Rel Max FI, 27-63 assay", "setting": "[1]; maximum fold induction relative to that of GS-E ligand", "result": 0},
      {"measurement": "fold induction at 33.3 µM", "setting": "[2]; read-out: Fold Induction Average, 13B3 assay", "result": 0.4},
      {"measurement": "fold induction at 33 µM", "setting": "Bombyx mori EcR (VBE); HEK293, read-out: Fold Induction Average, Z3 assay", "result": 0.6}
    ]},
    {"smiles": "Cc1cc(C)cc(C2=NOC3(CCCC3)N2NC(=O)Cc2ccccc2)c1", "note": "[RG-120046]", "values": [
      {"measurement": "Fold Induction Average, 13B3 assay", "setting": "[2]", "result": 1.3},
      {"measurement": "Fold Induction Average, Z3 assay", "setting": "Bombyx mori EcR (VBE)", "result": 8.9}
    ]},
    {"smiles": "CCc1ccc(C(=O)NN2C(c3ccc(-c4ccccc4)cc3)=NOC2(C)C)cc1", "note": "[RG-120142]", "values": [
      {"measurement": "Fold Induction Average, 13B3 assay", "setting": "[2]", "result": 0.3},
      {"measurement": "Fold Induction Average, Z3 assay", "setting": "Bombyx mori EcR (VBE)", "result": 0.4}
    ]},
    {"smiles": "CC1(C)ON=C(c2ccc(Cl)cc2)N1NC(=O)Cc1ccccc1", "note": "[RG-120121]", "values": [
      {"measurement": "Fold Induction Average, 13B3 assay", "setting": "[2]", "result": 0.1},
      {"measurement": "Fold Induction Average, Z3 assay", "setting": "Bombyx mori EcR (VBE)", "result": 0.7}
    ]},
    {"smiles": "COc1ccccc1C1=NOC(C)(C)N1NC(=O)c1ccccc1", "note": "[RG-120147]", "values": [
      {"measurement": "Fold Induction Average, 13B3 assay", "setting": "[2]", "result": 1.1},
      {"measurement": "Fold Induction Average, Z3 assay", "setting": "Bombyx mori EcR (VBE)", "result": 1.0}
    ]},
    {"smiles": "CCOC(=O)CCC(=O)NN1C(c2ccccc2OC)=NOC1(C)C", "note": "[RG-120144]", "values": [
      {"measurement": "Fold Induction Average, 13B3 assay", "setting": "[2]", "result": 0.1},
      {"measurement": "Fold Induction Average, Z3 assay", "setting": "Bombyx mori EcR (VBE)", "result": 0.7}
    ]},
    {"smiles": "Cc1cc(C)cc(C2=NOC(C)(C)N2NC(=O)NCc2ccccc2)c1", "note": "[RG-120088]", "values": [
      {"measurement": "Fold Induction Average, 13B3 assay", "setting": "[2]", "result": 0.9},
      {"measurement": "Fold Induction Average, Z3 assay", "setting": "Bombyx mori EcR (VBE)", "result": 8.2}
    ]},
    {"smiles": "COc1ccccc1C1=NOC(C)(C)N1NC(=O)Nc1ccccc1", "note": "[RG-120025]", "values": [
      {"measurement": "Fold Induction Average, 13B3 assay", "setting": "[2]", "result": 0.9},
      {"measurement": "Fold Induction Average, Z3 assay", "setting": "Bombyx mori EcR (VBE)", "result": 0.8}
    ]},
    {"smiles": "CC1(C)ON=C(c2ccc3c(c2)OCO3)N1NC(=O)c1cc2ccccc2s1", "note": "[RG-120140]", "values": [
      {"measurement": "Fold Induction Average, 13B3 assay", "setting": "[2]", "result": 1.4},
      {"measurement": "Fold Induction Average, Z3 assay", "setting": "Bombyx mori EcR (VBE)", "result": 0.5}
    ]},
    {"smiles": "CC1(C)ON=C(c2ccc3c(c2)OCO3)N1NC(=O)Cc1ccccc1", "note": "[RG-120081]", "values": [
      {"measurement": "Fold Induction Average, 13B3 assay", "setting": "[2]", "result": 0.5},
      {"measurement": "Fold Induction Average, Z3 assay", "setting": "Bombyx mori EcR (VBE)", "result": 0.6}
    ]},
    {"smiles": "CC1(C)ON=C(c2cccc(C(F)(F)F)c2)N1NC(=O)COc1ccccc1", "note": "[RG-120163]", "values": [
      {"measurement": "Fold Induction Average, 13B3 assay", "setting": "[2]", "result": 1.1},
      {"measurement": "Fold Induction Average, Z3 assay", "setting": "Bombyx mori EcR (VBE)", "result": 0.5}
    ]},
    {"smiles": "COc1ccc(C2=NOC(C)(C)N2NC(=O)COCc2ccccc2)c(OC)c1", "note": "[RG-120110]", "values": [
      {"measurement": "Fold Induction Average, 13B3 assay", "setting": "[2]", "result": 0.8},
      {"measurement": "Fold Induction Average, Z3 assay", "setting": "Bombyx mori EcR (VBE)", "result": 0.5}
    ]},
    {"smiles": "CCOC(=O)CCC(=O)NN1C(c2ccc3c(c2)OCO3)=NOC1(C)C", "note": "[RG-120083]", "values": [
      {"measurement": "Fold Induction Average, 13B3 assay", "setting": "[2]", "result": 1.3},
      {"measurement": "Fold Induction Average, Z3 assay", "setting": "Bombyx mori EcR (VBE)", "result": 0.8}
    ]},
    {"smiles": "CCc1c(OC)cccc1C(=O)NN1C(c2ccc(-c3ccccc3)cc2)=NOC1(C)C", "note": "[RG-120020]", "values": [
      {"measurement": "Fold Induction Average, 13B3 assay", "setting": "[2]", "result": 1.3},
      {"measurement": "Fold Induction Average, Z3 assay", "setting": "Bombyx mori EcR (VBE)", "result": 0.2}
    ]}
  ]
}
